# From patent US10933059B2, “Combination, application thereof and treatment method” (KANGPU BIOPHARMACEUTICALS, LTD., priority 2016, dated 2021)
# Where two headings read alike, the source gives them in different places.
# System: Vcap cells
# Assay: CTG cell proliferation assay on Vcap cells (compounds alone or in combination, 5 days)
# Type: cell-based
# Protocol: In vitro test of the inhibition effect of the compound in combination with androgen receptor pathway modulators on the prostate cancer cell proliferation.
# Inhibition effect of the compounds such as B101, B102, B103, B104, B105, B106, C111 and the like, androgen receptor pathway modulators, hormone compounds, alone or in combination with each other on the prostate cancer cell proliferation were tested on Vcap cells (androgen receptor (+) prostate cancer cells) (ATCC, catalogue number CRL-2876). The specific experimental operation was as follows: 5×10^3 Vcap cells per well were inoculated into 96-well plates with transparent bottom and white wall (Corning, catalogue number CLS3903) containing the specific medium, and were cultured in a 37° C., 5% CO2 incubator for 24 hours. The tested compounds and the androgen receptor pathway modulators were prepared to a 150 mM stocking solution with DMSO (Sigma, catalogue number 276855), diluted with culture medium to the desired concentrations (the final concentration of DMSO is 0.2%), and then added to each well, 2 wells/concentration, followed by being incubated in a 37° C., 5% CO2 incubator for 5 days. The tested compounds were used alone or in combination with other androgen receptor pathway modulators and/or hormone compounds respectively. […] After that, 100 μl of CellTiter-Glo® cell viability assay reagent (Promega, catalogue number G7570) was added to each well and mixed well on a vibrator for 10 minutes to induce cell lysis. The 96-well plate was placed at room temperature for 10 minutes, so as to stabilize its luminescence signal. A white bottom membrane was pasted on the bottom of the plate and the plate was tested using EnSpire.
# [1] = Homo sapiens, VCaP, 120 h, tested compound alone, 0.1 μM, read-out: Survival rate of Vcap cells
# [2] = Homo sapiens, VCaP, 120 h, tested compound alone, 1 μM, read-out: Survival rate of Vcap cells
# [3] = Homo sapiens, VCaP, 120 h, tested compound alone, 10 μM, read-out: Survival rate of Vcap cells
# [4] = tested compound 0.1 μM in combination with 1 μM ARN-509
# [5] = tested compound 0.1 μM in combination with 1 μM Enzalutamide
# [6] = tested compound 1 μM in combination with 1 μM ARN-509
# [7] = tested compound 1 μM in combination with 1 μM Enzalutamide
# [8] = tested compound 10 μM in combination with 1 μM ARN-509
# [9] = tested compound 10 μM in combination with 1 μM Enzalutamide
# [10] = tested compound 0.1 μM in combination with 1 μM B101
# [11] = tested compound 0.1 μM in combination with 1 μM B105
# [12] = tested compound 1 μM in combination with 1 μM B101
# [13] = tested compound 1 μM in combination with 1 μM B105
# [14] = tested compound 10 μM in combination with 1 μM B101
# [15] = tested compound 10 μM in combination with 1 μM B105
# [16] = Homo sapiens, VCaP, 120 h, read-out: Survival rate of Vcap cells, tested compound alone, 0.1 μM
# [17] = Homo sapiens, VCaP, 120 h, read-out: Survival rate of Vcap cells, tested compound alone, 10 μM
SMILES,viability at 0.1 µM [1],viability at 1 µM [2],viability at 10 µM [3],Survival rate of Vcap cells [4],Survival rate of Vcap cells [5],Survival rate of Vcap cells [6],Survival rate of Vcap cells [7],Survival rate of Vcap cells [8],Survival rate of Vcap cells [9],"Survival rate of Vcap cells (tested compound alone, 1 μM)",Survival rate of Vcap cells [10],Survival rate of Vcap cells [11],Survival rate of Vcap cells [12],Survival rate of Vcap cells [13],Survival rate of Vcap cells [14],Survival rate of Vcap cells [15],other results
[2H][C@@]1(N2Cc3c(N)cc(F)cc3C2=O)CCC(=O)NC1=O [B106],86.8%,79%,74.1%,50.6%,50.6%,41.1%,40.5%,39.9%,38.2%,79.0%,,,,,,,
"C[C@]12C=CC(=O)C=C1CC[C@@H]1[C@@H]2C(=O)C[C@@]2(C)[C@H]1CC[C@]2(O)C(=O)CO [Prednisone, reference compound]",99.1%,99.7%,99.4%,,,,,,,,84.0%,87.5%,76.9%,80.6%,75.3%,79.7%,
[2H]C1(N2Cc3c(N)cc(F)cc3C2=O)CCC(=O)NC1=O (stereo not drawn) [B104],84.4%,77.4%,74%,45.7%,47.1%,40.5%,41.2%,37.8%,38.8%,77.4%,,,,,,,
Nc1cc(F)cc2c1CN([C@H]1CCC(=O)NC1=O)C2=O [B102],84.7%,80.9%,78.4%,47.2%,46.3%,40.2%,41.1%,38.3%,40.1%,80.9%,,,,,,,
"C[C@](O)(COc1ccc(C#N)cc1)C(=O)Nc1ccc(C#N)c(C(F)(F)F)c1 [MK-2866, reference compound]",,,,,,,,,,,61.4%,62.6%,63.6%,59.7%,52.7%,52.5%,"viability at 0.1 µM [16]: 76.5%; viability at 1 µM (Homo sapiens, VCaP, 120 h, read-out: Survival rate of Vcap cells, tested compound alone, 1 μM): 77.4%; viability at 10 µM [17]: 69.4%"
"CC(=O)S[C@@H]1CC2=CC(=O)CC[C@]2(C)[C@H]2CC[C@@]3(C)[C@@H](CC[C@@]34CCC(=O)O4)[C@H]12 [Spironolactone, reference compound]",100%,91.3%,72.5%,,,,,,,,85.3%,87.2%,77.3%,79.6%,65.9%,64.5%,
Nc1cc(F)cc2c1CN([C@@H]1CCC(=O)NC1=O)C2=O [B103],86.3%,84.1%,85.5%,48.8%,50.2%,41.7%,42.7%,38.3%,42.9%,84.1%,,,,,,,
"CC(=O)Nc1ccc(OC[C@](C)(O)C(=O)Nc2ccc([N+](=O)[O-])c(C(F)(F)F)c2)cc1 [Andarine, reference compound]",,,,,,,,,,82.7%,69.8%,71.1%,65.5%,64.6%,53.8%,53.5%,"Survival rate of Vcap cells (tested compound alone, 0.1 μM): 85.6%; Survival rate of Vcap cells (tested compound alone, 10 μM): 69.4%"
"CC(C)C(=O)Nc1ccc([N+](=O)[O-])c(C(F)(F)F)c1 [Flutamide, reference compound]",105%,96.7%,73.1%,,,,,,,,80.4%,76.5%,65.1%,64.6%,42.8%,43.8%,
[2H][C@]1(N2Cc3c(OCc4ccc(CN5CCOCC5)cc4F)cccc3C2=O)CCC(=O)NC1=O [C111],81.5%,81%,77%,37.0%,36.3%,35.6%,35.8%,37.3%,36.6%,,,,,,,,"inhibition at 0.05 µM (Homo sapiens, VCaP, 120 h, B105 or C111 0.05 μM alone, 5 days, read-out: Vcap cell proliferation inhibition rate): 19.6%; inhibition at 0.14 µM (Homo sapiens, VCaP, 120 h, B105 or C111 0.14 μM alone, 5 days, read-out: Vcap cell proliferation inhibition rate): 20.9%; inhibition at 1.23 µM (Homo sapiens, VCaP, 120 h, B105 or C111 1.23 μM alone, 5 days, read-out: Vcap cell proliferation inhibition rate): 23.4%; inhibition at 3.7 µM (Homo sapiens, VCaP, 120 h, B105 or C111 3.70 μM alone, 5 days, read-out: Vcap cell proliferation inhibition rate): 25.4%; inhibition at 11.11 µM (Homo sapiens, VCaP, 120 h, B105 or C111 11.11 μM alone, 5 days, read-out: Vcap cell proliferation inhibition rate): 28.8%; inhibition at 33.33 µM (Homo sapiens, VCaP, 120 h, B105 or C111 33.33 μM alone, 5 days, read-out: Vcap cell proliferation inhibition rate): 29.1%; inhibition at 100 µM (Homo sapiens, VCaP, 120 h, B105 or C111 100.00 μM alone, 5 days, read-out: Vcap cell proliferation inhibition rate): 31.6%; inhibition at 300 µM (Homo sapiens, VCaP, 120 h, B105 or C111 300.00 μM alone, 5 days, read-out: Vcap cell proliferation inhibition rate): 33.9%; Survival rate of Vcap cells (tested compound 0.1 μM in combination with 1 μM Abiraterone acetate): 65.5%; Survival rate of Vcap cells (tested compound 0.1 μM in combination with 1 μM Galeterone): 46.6%; Survival rate of Vcap cells (tested compound 0.1 μM in combination with 1 μM ODM-201): 45.9%; Survival rate of Vcap cells (tested compound 1 μM in combination with 1 μM Abiraterone acetate): 68.5%; Survival rate of Vcap cells (tested compound 1 μM in combination with 1 μM Galeterone): 47.0%; Survival rate of Vcap cells (tested compound 1 μM in combination with 1 μM ODM-201): 43.1%; Survival rate of Vcap cells (tested compound 10 μM in combination with 1 μM Abiraterone acetate): 66.1%; Survival rate of Vcap cells (tested compound 10 μM in combination with 1 μM Galeterone): 47.8%; Survival rate of Vcap cells (tested compound 10 μM in combination with 1 μM ODM-201): 37.2%"
"CC(=O)O[C@]1(C(C)=O)CC[C@H]2[C@@H]3C=C(C)C4=CC(=O)CC[C@]4(C)[C@H]3CC[C@@]21C [Megestrol Acetate, reference compound]",99.7%,103%,88.9%,,,,,,,,85.2%,82.1%,83.1%,83.3%,75.2%,76.6%,
"CC(=O)O[C@]1(C(C)=O)CC[C@H]2[C@@H]3C=C(Cl)C4=CC(=O)[C@@H]5C[C@@H]5[C@]4(C)[C@H]3CC[C@@]21C [Cyproterone Acetate, reference compound]",97.2%,96%,83.5%,,,,,,,,85.0%,82.1%,85.0%,84.0%,78.9%,79.4%,
"CC(O)c1cc(C(=O)N[C@@H](C)Cn2ccc(-c3ccc(C#N)c(Cl)c3)n2)[nH]n1 (stereo partly drawn) [ODM-201, reference compound]",,69%,,,,,,,,69.0%,,,,,,,viability at 0.1 µM [16]: 90.7%; viability at 10 µM [17]: 75.4%
"CC(O)(CS(=O)(=O)c1ccc(F)cc1)C(=O)Nc1ccc(C#N)c(C(F)(F)F)c1 (stereo not drawn) [bicalutamide, reference compound]",,94%,92%,,,,,,,,70.5%,75.9%,66.5%,67.3%,64.0%,63.4%,viability at 0.1 µM [16]: 99.2%
"C[C@]12CC[C@H](O)C[C@@H]1CC[C@@H]1[C@@H]2CC[C@]2(C)C(=O)CC[C@@H]12 [Epiandrosterone, reference compound]",,,,,,,,,,,,71.5%,71.1%,64.6%,79.8%,77.4%,
